Results: US10137122B2, “Kinase inhibitors and methods of use thereof” (priority 2012, dated 2018)

Key:
[1] = test system: phospho-Tau (Ser199) in SH-SY5Y cells; experiment: Tau phosphorylation assay (phospho-Tau Ser199 ELISA); format: cell-based, human; details: Homo sapiens, read-out: Phospho-Tau ELISA in SHSY5Y Cells (IC50)
[2] = test system: β-catenin nuclear translocation in U2-OS cells; experiment: β-Catenin nuclear localization assay; format: cell-based; details: Homo sapiens, U2OS, read-out: beta-Catenin translocation EC50
panel of 311 kinases = experiment: Single point kinome-wide profile (Carna Biosciences); format: biochemical; details: panel of 311 kinases
Method: (§1) Briefly, a selection of compounds was screened against a panel of kinases at a single concentration of 10 μM. […] This was completed utilizing one of two assays depending on the kinase being examined.
(§2) Test compounds were dissolved in and diluted with dimethylsulfoxide (DMSO) to generate a 100× sample solution. These were then diluted to 4× sample solutions in assay buffer to make the final test compound solutions. Reference compounds for assay control were prepared similarly.
(§3) A solution of IMAP binding reagent (IMAP Screening Express kit; Molecular Devices) (60 μL) was added to each well and incubated for 30 minutes.
(§4) A solution of termination buffer (QuickScout Screening assist MSA; Carna Biosciences) (60 μL) was added to each well. The entire reaction mixture was then applied to a LabChip3000 system (Caliper Life Science) and the product and substrate peptide peaks were separated and quantified.

BRAF = BRAF (Homo sapiens (Human), UniProt P15056); experiment: Single point inhibition at 10 μM (Carna), BRAF; format: biochemical
Method: as §1, §2, §3, §4

CDK2/CycA2 = CDK2/CycA2 (Homo sapiens (Human), UniProt P24941); experiment: Single point inhibition at 10 μM (Carna), CDK2/CycA2; format: biochemical
Method: as §1, §2, §3, §4

CDK2/CycE1 = CDK2/CycE1 (Homo sapiens (Human), UniProt P24941); experiment: Single point inhibition at 10 μM (Carna), CDK2/CycE1; format: biochemical
Method: as §1, §2, §3, §4

CDK4 = CDK4 (Homo sapiens (Human), UniProt P11802); experiment: Single point inhibition at 10 μM (Carna), CDK4; format: biochemical
Method: as §1, §2, §3, §4

CDK5 = CDK5 (Homo sapiens (Human), UniProt Q00535); experiment: Single point inhibition at 10 μM (Carna), CDK5; format: biochemical
Method: (§5) Single Point Inhibitory Analysis of Selected Compounds (Carna Biosciences)
as §1, §2, §3, §4

CK1g1 = CK1g1 (Homo sapiens (Human), UniProt Q9HCP0); experiment: Single point inhibition at 10 μM (Carna), CK1g1; format: biochemical
Method: as §1, §2, §3, §4

CK1g3 = CK1g3 (Homo sapiens (Human), UniProt Q9Y6M4); experiment: Single point inhibition at 10 μM (Carna), CK1g3; format: biochemical
Method: as §1, §2, §3, §4

DYKR1B = DYKR1B (Homo sapiens (Human), UniProt Q9Y463); experiment: Single point inhibition at 10 μM (Carna), DYKR1B; format: biochemical
Method: as §1, §2, §3, §4

Erk5 = Erk5 (Homo sapiens (Human), UniProt Q13164); experiment: Single point inhibition at 10 μM (Carna), Erk5; format: biochemical
Method: as §5, §1, §2, §3, §4

HIPK4 = HIPK4 (Homo sapiens (Human), UniProt Q8NE63); experiment: Single point inhibition at 10 μM (Carna), HIPK4; format: biochemical
Method: as §5, §1, §2, §3, §4

MAP2K6 = MAP2K6 (Homo sapiens (Human), UniProt P52564); experiment: Single point inhibition at 10 μM (Carna), MAP2K6; format: biochemical
Method: as §5, §1, §2, §3, §4

MELK = MELK (Homo sapiens (Human), UniProt Q14680); experiment: Single point inhibition at 10 μM (Carna), MELK; format: biochemical
Method: as §5, §1, §2, §3, §4

MLK3 = MLK3 (Homo sapiens (Human), UniProt Q16584); experiment: Single point inhibition at 10 μM (Carna), MLK3; format: biochemical
Method: as §5, §1, §2, §3, §4

PKR = PKR (Homo sapiens (Human), UniProt P19525); experiment: Single point inhibition at 10 μM (Carna), PKR; format: biochemical
Method: as §5, §1, §2, §3, §4

PLK1 = PLK1 (Homo sapiens (Human), UniProt P53350); experiment: Single point inhibition at 10 μM (Carna), PLK1; format: biochemical
Method: as §5, §1, §2, §3, §4

RSK3 = RSK3 (Homo sapiens (Human), UniProt Q15349); experiment: Single point inhibition at 10 μM (Carna), RSK3; format: biochemical
Method: as §5, §1, §2, §3, §4

CDK2 = CDK2 (Homo sapiens (Human), UniProt P24941); experiment: Single point inhibition at 10 μM (kinase screen), CDK2; format: biochemical
Method: as §1, §2, §3, §4

CLK1 = CLK1 (Homo sapiens (Human), UniProt P49759); experiment: Single point inhibition at 10 μM (kinase screen), CLK1; format: biochemical
Method: as §1, §2, §3, §4

[3] = M (mouse)
[4] = test system: TCF/LEF reporter in HEK293-pBARL cells; experiment: cells; details: Homo sapiens, HEK293, read-out: TCF/LEF EC50 (μM)
Method: HEK293-pBARL cells were derived from HEK293 cells and they stably expressed a firefly-luciferase reporter gene driven by a promoter containing 12 copies of TCF/LEF binding sequences. These cells were maintained in DMEM and supplemented with 10% FBS and 1% penicillin-streptomycin (Invitrogen). Reporter gene assays were conducted in anti-biotic free media. […] These cells also contained a renilla-luciferase reporter gene driven by the ubiquitous EF1α promoter as a control. HEK293-pBarl reporter cell lines were seeded into 384-well culture plates (Corning) at 6000 cells/well. 24 hours after plating, cells were treated overnight with relevant compounds and assayed using DualGlo assay kit (Promega). Luminescent intensities were read by EnVision (PerkinElmer, Waltham, Mass.). Firefly luciferase intensity is normalized by renilla luciferase intensity.
Cells were cultured in 384 well plates to appropriate density (40 μl total plating volume). 24 hours after plating, cells were treated with 100 nl compounds. 24 hours after incubation with compounds (48 hours after plating), assay reagents were prepared by mixing Luciferase Assay solution with Luciferase substrate and Stop & Glo solution to Stop & Glo substrate (extra reagents can be aliquoted and frozen for future use and are stable for at least one freeze/thaw cycle). […] The plate was spun down and 10 minutes were allowed for signal stabilization. Luciferase signal on the Perkin Elmer EnVision using the following parameters: Distance between plate & detector (mm)=0.2; Measurement time(s)=0.1; Glow (CT2) correction factor=0. Once the initial data is secure, a volume of Stop & Glo was added equal to each well equal to the volume of Luciferase reagent added above (If 10 μl Luciferase Reagent was added, 10 μl Stop & Glo was also added). The plate was spun down and 10 minutes were allowed for signal stabilization. The plate was read on the EnVision using the same parameters detailed above.

GSK3α = GSK3α (Homo sapiens (Human), UniProt P49840); experiment: biochemical; details: read-out: % Inhibition at 10 μM, GSK3α
Method: as §1, §2, §3, §4

GSK3β = GSK3β (Homo sapiens (Human), UniProt P49841); experiment: biochemical; details: read-out: % Inhibition at 10 μM, GSK3β
Method: as §1, §2, §3, §4

CDK4, sequence (P11802 whole entry): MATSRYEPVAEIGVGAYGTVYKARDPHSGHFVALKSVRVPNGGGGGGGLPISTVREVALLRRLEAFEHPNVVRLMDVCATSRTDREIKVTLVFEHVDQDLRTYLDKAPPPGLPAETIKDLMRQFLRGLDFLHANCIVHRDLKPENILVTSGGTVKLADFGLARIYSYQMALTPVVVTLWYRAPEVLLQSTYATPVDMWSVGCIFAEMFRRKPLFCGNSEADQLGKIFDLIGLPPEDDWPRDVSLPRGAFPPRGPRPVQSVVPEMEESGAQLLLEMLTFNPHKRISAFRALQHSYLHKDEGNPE
CDK4, sequence (P30281 whole entry partner): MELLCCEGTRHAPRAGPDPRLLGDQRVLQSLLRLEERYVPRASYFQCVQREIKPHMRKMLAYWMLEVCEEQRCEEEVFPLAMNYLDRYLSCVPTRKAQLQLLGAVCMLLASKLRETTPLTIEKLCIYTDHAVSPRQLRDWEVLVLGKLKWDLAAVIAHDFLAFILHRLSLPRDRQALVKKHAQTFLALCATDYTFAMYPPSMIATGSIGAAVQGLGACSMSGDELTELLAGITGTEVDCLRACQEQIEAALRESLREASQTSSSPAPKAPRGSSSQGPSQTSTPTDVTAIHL
RSK3, sequence (Q15349 whole entry): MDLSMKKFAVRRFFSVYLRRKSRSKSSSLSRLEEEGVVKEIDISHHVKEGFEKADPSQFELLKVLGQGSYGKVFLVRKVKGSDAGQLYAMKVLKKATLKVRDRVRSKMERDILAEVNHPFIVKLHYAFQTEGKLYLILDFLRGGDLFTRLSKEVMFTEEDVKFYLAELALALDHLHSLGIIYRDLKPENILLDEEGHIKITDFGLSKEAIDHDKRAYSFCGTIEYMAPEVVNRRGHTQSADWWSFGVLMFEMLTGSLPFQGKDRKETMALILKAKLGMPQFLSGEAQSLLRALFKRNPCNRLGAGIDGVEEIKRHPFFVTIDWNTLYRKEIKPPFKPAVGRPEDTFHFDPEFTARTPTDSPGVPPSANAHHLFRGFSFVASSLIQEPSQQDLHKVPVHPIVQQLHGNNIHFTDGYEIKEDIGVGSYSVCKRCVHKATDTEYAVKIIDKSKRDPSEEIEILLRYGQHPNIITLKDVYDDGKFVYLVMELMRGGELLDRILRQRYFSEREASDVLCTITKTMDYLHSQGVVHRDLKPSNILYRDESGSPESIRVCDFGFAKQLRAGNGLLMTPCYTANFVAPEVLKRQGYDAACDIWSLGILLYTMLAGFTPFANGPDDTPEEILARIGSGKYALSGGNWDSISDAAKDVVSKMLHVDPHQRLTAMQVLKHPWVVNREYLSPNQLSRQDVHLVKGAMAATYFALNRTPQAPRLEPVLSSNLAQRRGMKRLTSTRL
MELK, sequence (Q14680 whole entry): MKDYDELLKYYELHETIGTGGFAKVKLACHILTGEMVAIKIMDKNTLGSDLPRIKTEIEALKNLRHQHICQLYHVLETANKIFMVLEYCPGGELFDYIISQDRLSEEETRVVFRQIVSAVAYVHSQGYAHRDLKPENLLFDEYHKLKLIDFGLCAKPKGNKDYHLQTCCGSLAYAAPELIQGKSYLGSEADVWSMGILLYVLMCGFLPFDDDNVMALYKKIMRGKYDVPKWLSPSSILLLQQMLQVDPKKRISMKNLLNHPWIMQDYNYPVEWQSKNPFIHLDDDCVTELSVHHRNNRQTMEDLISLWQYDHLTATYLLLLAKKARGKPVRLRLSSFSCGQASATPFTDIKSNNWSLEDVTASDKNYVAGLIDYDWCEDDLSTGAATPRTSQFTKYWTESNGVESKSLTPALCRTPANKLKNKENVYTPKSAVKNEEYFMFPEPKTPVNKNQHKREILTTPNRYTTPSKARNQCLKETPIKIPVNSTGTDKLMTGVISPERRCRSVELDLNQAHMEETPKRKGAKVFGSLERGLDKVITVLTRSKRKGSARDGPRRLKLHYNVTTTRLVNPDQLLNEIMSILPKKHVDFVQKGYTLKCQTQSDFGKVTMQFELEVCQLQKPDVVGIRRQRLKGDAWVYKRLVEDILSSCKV
Erk5, sequence (Q13164 whole entry): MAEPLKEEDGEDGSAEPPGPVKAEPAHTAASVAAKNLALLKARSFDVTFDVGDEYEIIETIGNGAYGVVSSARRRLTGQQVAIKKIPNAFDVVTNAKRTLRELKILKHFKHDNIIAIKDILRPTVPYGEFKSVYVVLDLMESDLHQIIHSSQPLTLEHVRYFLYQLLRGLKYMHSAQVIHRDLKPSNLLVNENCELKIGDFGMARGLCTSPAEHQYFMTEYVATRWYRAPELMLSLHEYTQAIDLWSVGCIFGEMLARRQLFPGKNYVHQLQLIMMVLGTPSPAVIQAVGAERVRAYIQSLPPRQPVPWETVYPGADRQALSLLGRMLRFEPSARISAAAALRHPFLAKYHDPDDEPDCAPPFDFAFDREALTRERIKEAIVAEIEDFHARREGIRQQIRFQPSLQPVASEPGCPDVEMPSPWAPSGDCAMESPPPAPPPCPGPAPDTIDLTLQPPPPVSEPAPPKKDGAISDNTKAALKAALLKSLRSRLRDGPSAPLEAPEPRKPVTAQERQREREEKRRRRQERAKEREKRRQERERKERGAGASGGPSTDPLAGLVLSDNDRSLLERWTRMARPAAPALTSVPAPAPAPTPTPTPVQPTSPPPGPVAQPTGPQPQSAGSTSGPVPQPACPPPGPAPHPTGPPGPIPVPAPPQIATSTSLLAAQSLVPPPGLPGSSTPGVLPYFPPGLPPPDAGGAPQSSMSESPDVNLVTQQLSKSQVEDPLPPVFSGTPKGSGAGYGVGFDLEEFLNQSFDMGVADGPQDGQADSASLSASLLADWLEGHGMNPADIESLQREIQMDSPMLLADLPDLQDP
MLK3, sequence (Q16584 whole entry): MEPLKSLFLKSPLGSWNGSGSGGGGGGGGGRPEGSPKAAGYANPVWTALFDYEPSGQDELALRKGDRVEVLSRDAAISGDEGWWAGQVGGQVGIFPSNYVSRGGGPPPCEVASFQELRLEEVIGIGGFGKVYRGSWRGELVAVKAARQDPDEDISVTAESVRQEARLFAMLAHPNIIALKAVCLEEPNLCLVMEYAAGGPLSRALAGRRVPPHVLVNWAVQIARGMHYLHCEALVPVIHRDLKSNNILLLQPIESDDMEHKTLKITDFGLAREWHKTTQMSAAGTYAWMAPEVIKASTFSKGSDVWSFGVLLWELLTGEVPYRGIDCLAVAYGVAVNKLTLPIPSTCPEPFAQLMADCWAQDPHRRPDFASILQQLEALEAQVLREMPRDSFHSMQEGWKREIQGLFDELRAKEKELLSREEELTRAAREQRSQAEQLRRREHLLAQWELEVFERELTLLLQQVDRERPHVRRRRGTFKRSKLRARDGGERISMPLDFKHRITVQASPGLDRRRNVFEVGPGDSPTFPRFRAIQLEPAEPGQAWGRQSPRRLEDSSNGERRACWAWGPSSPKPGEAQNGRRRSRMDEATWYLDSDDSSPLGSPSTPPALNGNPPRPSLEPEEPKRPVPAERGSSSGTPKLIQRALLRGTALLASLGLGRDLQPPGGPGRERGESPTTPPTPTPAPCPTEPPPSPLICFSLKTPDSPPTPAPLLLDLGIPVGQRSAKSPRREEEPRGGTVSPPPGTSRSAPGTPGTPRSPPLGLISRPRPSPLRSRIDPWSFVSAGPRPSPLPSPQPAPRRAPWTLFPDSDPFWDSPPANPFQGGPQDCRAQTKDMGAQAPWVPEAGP
PLK1, sequence (P53350 whole entry): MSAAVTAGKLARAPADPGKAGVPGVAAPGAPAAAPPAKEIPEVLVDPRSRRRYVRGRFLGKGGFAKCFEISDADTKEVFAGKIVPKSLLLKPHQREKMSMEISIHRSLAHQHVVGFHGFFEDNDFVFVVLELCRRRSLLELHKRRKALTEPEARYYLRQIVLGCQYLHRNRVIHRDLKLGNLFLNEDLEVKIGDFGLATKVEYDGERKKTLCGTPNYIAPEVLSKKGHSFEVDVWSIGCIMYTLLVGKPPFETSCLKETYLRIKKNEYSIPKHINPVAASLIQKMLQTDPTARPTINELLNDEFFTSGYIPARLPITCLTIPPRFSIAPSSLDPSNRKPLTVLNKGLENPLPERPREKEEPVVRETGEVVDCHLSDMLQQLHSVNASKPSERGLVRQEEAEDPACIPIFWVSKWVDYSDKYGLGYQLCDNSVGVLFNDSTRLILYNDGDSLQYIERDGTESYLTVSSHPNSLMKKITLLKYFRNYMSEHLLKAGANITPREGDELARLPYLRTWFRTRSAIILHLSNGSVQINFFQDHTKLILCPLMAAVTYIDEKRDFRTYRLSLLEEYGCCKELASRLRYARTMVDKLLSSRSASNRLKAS
PKR, sequence (P19525 whole entry): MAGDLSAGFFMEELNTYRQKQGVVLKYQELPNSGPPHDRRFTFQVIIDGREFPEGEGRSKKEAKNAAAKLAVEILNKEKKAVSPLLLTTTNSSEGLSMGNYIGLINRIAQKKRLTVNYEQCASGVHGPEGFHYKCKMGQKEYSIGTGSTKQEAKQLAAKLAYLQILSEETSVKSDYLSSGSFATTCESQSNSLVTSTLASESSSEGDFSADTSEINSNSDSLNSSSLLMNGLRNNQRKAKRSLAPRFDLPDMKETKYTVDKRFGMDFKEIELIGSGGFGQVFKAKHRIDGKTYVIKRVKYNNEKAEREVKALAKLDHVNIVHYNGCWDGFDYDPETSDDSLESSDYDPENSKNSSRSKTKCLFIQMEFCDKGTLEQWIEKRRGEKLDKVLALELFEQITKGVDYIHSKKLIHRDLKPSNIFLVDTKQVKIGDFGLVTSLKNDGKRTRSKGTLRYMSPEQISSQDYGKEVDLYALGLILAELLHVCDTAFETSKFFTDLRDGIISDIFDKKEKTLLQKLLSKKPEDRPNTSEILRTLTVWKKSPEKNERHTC

Which results are given for Cc1c[nH]c(-c2cnc(NCCNc3ccc(C#N)cn3)nc2-c2ccc(Cl)cc2Cl)n1 [CHIR99021, reference compound]?
IC50 [1]: 0.44 µM; EC50 [2]: 10 µM; number of kinases inhibited greater than 50% at 10 μM (panel of 311 kinases): 21 kinases; inhibition at 10 µM (BRAF): 53.8%; inhibition at 10 µM (CDK2/CycA2): 79.3%; inhibition at 10 µM (CDK2/CycE1): 67.2%; inhibition at 10 µM (CDK4): 65.3%; inhibition at 10 µM (CDK5): > 50%; inhibition at 10 µM (CK1g1): 85.8%; inhibition at 10 µM (CK1g3): 70.5%; inhibition at 10 µM (DYKR1B): 70.5%; inhibition at 10 µM (Erk5): > 50%; inhibition at 10 µM (HIPK4): 55.5%; inhibition at 10 µM (MAP2K6): 65.3%; inhibition at 10 µM (MELK): 53.5%; inhibition at 10 µM (MLK3): 52.7%; inhibition at 10 µM (PKR): 57.1%; inhibition at 10 µM (PLK1): > 50%; inhibition at 10 µM (RSK3): 53.6%; inhibition at 10 µM (CDK2): > 50%; inhibition at 10 µM (CLK1): > 50%; Microsomal Stability [3]: M: 4%; EC50 [4]: 6 µM; inhibition at 10 µM (GSK3α): 99.9%; inhibition at 10 µM (GSK3β): 99.9%
